Measured values published in ChEMBL document CHEMBL1909046, “DrugMatrix in vitro pharmacology data”.

Legend:
Adenosine receptor A2a = Adenosine receptor A2a (Homo sapiens, UniProt P29274); assay: DRUGMATRIX: Adenosine A2A radioligand binding (ligand: […]); assay type: cell membranes, HEK293, Membrane; settings: hek293; Not Active = under 50% inhibition at 10 µM
[1] = DRUGMATRIX: Calcium Channel Type L, Phenylalkylamine radioligand binding (ligand: [3H] (-)-Desmethoxyverapamil (D-888)); assay type: cell membranes, Rattus norvegicus, Wistar, Brain, Membrane; settings: Not Active = under 50% inhibition at 10 µM
Cannabinoid receptor 1 = Cannabinoid receptor 1 (Homo sapiens, UniProt P21554); assay type: cell membranes, Chem-1, Membrane; settings: chem-1; note: in other assays of this panel Not Active means under 50% inhibition at 10 µM
[2] = target: T1, Angiotensin-converting enzyme (Oryctolagus cuniculus, UniProt P12822); assay type: tissue-based, Lung;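 note: enzymatic inhibition of angiotensin-converting enzyme measured with FAPGG as the substrate; in other assays of this panel Not Active means under 50% inhibition at 10 µM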
T1 sequence (P12822 whole entry): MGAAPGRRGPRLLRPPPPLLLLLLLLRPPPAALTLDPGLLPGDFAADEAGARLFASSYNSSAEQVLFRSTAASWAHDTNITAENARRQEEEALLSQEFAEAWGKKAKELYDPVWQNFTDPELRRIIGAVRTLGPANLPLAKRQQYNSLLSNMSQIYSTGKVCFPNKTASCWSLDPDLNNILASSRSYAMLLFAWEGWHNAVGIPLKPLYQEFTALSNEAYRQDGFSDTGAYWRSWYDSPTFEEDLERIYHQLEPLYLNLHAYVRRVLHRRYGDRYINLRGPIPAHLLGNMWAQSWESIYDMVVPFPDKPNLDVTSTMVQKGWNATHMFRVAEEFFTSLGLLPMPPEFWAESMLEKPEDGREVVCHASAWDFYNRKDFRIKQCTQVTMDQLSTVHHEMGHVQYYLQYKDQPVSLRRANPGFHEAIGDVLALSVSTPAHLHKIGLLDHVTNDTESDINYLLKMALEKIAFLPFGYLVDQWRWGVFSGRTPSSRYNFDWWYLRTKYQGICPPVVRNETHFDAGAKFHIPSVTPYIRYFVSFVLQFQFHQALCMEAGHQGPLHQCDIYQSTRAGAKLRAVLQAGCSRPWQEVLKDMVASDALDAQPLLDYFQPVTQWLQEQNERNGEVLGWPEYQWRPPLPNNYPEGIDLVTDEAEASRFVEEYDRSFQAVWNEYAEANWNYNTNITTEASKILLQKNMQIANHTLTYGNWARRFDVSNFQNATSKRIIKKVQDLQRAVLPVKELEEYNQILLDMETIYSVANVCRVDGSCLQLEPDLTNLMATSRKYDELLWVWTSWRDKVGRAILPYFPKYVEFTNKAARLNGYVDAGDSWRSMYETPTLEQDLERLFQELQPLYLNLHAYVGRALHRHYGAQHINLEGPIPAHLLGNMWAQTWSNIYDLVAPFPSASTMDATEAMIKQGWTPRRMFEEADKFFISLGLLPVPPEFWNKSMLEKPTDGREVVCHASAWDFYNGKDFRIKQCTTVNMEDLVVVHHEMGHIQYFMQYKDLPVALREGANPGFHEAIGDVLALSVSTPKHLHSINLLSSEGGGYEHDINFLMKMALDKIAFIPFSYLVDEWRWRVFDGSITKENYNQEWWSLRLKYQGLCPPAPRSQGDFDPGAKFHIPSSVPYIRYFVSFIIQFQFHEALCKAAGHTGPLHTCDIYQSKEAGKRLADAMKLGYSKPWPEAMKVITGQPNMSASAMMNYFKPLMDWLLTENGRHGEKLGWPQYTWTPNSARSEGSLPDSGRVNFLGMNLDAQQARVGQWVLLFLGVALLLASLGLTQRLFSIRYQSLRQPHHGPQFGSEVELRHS

[3] = target: Sigma non-opioid intracellular receptor 1 (Homo sapiens, UniProt Q99720); assay: DRUGMATRIX: Sigma1 radioligand binding (ligand: [3H] Haloperidol); assay type: cell membranes, Jurkat, Membrane; settings: jurkat; Not Active = under 50% inhibition at 10 µM
[4] = target: Protein phosphatase 3 catalytic subunit alpha (Homo sapiens, UniProt Q08209); design: species or system Escherichia coli;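 note: inhibition of calcineurin (PP2B) enzyme activity, measured with DiFMUP as the substrate; in other assays of this panel Not Active means under 50% inhibition at 10 µM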

Sequence of Sigma non-opioid intracellular receptor 1 (Q99720 whole entry): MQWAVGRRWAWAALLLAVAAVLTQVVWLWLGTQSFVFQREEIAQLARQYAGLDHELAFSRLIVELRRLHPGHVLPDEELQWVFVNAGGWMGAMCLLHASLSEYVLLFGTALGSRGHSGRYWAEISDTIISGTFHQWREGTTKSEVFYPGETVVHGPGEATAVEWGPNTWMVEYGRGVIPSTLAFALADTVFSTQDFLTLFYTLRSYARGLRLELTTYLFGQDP
Sequence of Adenosine receptor A2a (P29274 whole entry): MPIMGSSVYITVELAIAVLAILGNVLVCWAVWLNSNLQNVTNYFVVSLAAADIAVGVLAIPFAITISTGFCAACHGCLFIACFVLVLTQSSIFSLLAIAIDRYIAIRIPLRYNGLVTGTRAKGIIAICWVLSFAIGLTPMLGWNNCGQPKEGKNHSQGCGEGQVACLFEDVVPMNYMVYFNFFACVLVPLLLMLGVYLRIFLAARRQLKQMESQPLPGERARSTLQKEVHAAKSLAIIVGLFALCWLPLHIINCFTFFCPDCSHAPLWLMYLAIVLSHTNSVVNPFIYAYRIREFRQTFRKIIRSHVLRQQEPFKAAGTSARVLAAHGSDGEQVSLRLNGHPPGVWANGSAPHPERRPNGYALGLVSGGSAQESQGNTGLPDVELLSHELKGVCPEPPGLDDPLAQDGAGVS
Sequence of Cannabinoid receptor 1 (P21554 whole entry): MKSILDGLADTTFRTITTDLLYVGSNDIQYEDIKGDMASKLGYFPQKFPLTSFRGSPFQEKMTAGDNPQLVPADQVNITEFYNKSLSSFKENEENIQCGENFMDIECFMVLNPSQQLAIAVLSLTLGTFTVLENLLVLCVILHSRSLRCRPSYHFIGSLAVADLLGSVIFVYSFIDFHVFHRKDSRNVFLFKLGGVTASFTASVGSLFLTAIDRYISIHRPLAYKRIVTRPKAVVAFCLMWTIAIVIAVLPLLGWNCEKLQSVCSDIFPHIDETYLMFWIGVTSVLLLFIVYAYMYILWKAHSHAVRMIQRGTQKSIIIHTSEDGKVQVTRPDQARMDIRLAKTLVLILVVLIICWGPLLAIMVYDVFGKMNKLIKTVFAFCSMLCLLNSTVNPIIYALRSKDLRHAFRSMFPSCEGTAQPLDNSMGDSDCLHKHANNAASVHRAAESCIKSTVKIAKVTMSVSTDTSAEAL

With `NNCCc1ccccc1` [PHENELZINE] the IC50 (Adenosine receptor A2a) was “Not Active”, the IC50 [1] was “Not Active” and the Ki [1] was “Not Active”. The IC50 (Cannabinoid receptor 1) was “Not Active”, the IC50 [2] was “Not Active” and the IC50 [3] was “Not Active”. For the same compound, the IC50 [4] was “Not Active”.

For `CCc1ccc(CCOc2ccc(CC3SC(=O)NC3=O)cc2)nc1` (stereo not given) [PIOGLITAZONE], the IC50 (Adenosine receptor A2a) was “Not Active”, the IC50 [1] was “Not Active” and the Ki [1] was “Not Active”. For the same compound, the IC50 (Cannabinoid receptor 1) was “Not Active”, the IC50 [2] was “Not Active” and the IC50 [3] was “Not Active”. The IC50 [4] was “Not Active”.

For `CCCNC(C)C(=O)Nc1ccccc1C` (stereo not given) [PRILOCAINE], the IC50 (Adenosine receptor A2a) was “Not Active”, the IC50 [1] was “Not Active” and the Ki [1] was “Not Active”. For the same compound, the IC50 (Cannabinoid receptor 1) was “Not Active”, the IC50 [2] was “Not Active” and the IC50 [3] was “Not Active”. For the same compound, the IC50 [4] was “Not Active”.

With `CCN(CC)CCNC(=O)c1ccc(N)cc1` [PROCAINAMIDE] the IC50 (Adenosine receptor A2a) was “Not Active”, the IC50 [1] was “Not Active” and the Ki [1] was “Not Active”. The IC50 (Cannabinoid receptor 1) was “Not Active”, the IC50 [2] was “Not Active” and the IC50 [3] was “Not Active”. For the same compound, the IC50 [4] was “Not Active”.

For `CCN(CC)CCCC(C)Nc1c2ccc(Cl)cc2nc2ccc(OC)cc12` (stereo not given) [QUINACRINE], the IC50 (Adenosine receptor A2a) was “Not Active”, the IC50 ([1]; read-out: IC50) was 739 nM and the Ki ([1]; read-out: Ki) was 719 nM. The IC50 (Cannabinoid receptor 1) was “Not Active”, the IC50 [2] was “Not Active” and the IC50 [3] was “Not Active”. For the same compound, the IC50 [4] was “Not Active”.

For `C[C@]12C=CC(=O)C=C1CC[C@H]1[C@@H]3C[C@@H](O)[C@](O)(C(=O)CO)[C@@]3(C)C[C@H](O)[C@@]12F` [TRIAMCINOLONE], the IC50 (Adenosine receptor A2a) was “Not Active”, the IC50 [1] was “Not Active” and the Ki [1] was “Not Active”. For the same compound, the IC50 (Cannabinoid receptor 1) was “Not Active”, the IC50 [2] was “Not Active” and the IC50 [3] was “Not Active”. For the same compound, the IC50 [4] was “Not Active”.

In the case of `CC[C@]1(O)C[C@@H]2CN(CCc3c([nH]c4ccccc34)[C@@](C(=O)OC)(c3cc4c(cc3OC)N(C)[C@H]3[C@@](O)(C(N)=O)[C@H](O)[C@]5(CC)C=CCN6CC[C@]43[C@@H]65)C2)C1` [VINDESINE], the IC50 (Adenosine receptor A2a) is reported as “Not Active”, the IC50 [1] is reported as “Not Active” and the Ki [1] is reported as “Not Active”. The IC50 (Cannabinoid receptor 1) was “Not Active”, the IC50 [2] was “Not Active” and the IC50 [3] was “Not Active”. The IC50 [4] was “Not Active”.

For `CCN(C(C)=O)c1cccc(-c2ccnc3c(C#N)cnn23)c1` [ZALEPLON], the IC50 (Adenosine receptor A2a) was “Not Active”, the IC50 [1] was “Not Active” and the Ki [1] was “Not Active”. For the same compound, the IC50 (Cannabinoid receptor 1) was “Not Active”, the IC50 [2] was “Not Active” and the IC50 [3] was “Not Active”. For the same compound, the IC50 [4] was “Not Active”.

In the case of COBALTOUS CHLORIDE, the IC50 (Adenosine receptor A2a) is reported as “Not Active”, the Ki (Adenosine receptor A2a) is reported as “Not Active” and the IC50 [1] is reported as “Not Active”. The Ki [1] was “Not Active”, the IC50 (Cannabinoid receptor 1) was “Not Active” and the Ki (Cannabinoid receptor 1) was “Not Active”. For the same compound, the IC50 [2] was “Not Active”, the Ki [2] was “Not Active” and the IC50 [3] was “Not Active”. For the same compound, the Ki [3] was “Not Active”, the IC50 [4] was “Not Active” and the Ki [4] was “Not Active”.

With COLISTIN the IC50 (Adenosine receptor A2a) was “Not Active”, the Ki (Adenosine receptor A2a) was “Not Active” and the IC50 [1] was “Not Active”. For the same compound, the Ki [1] was “Not Active”, the IC50 (Cannabinoid receptor 1) was “Not Active” and the Ki (Cannabinoid receptor 1) was “Not Active”. For the same compound, the IC50 [2] was “Not Active”, the Ki [2] was “Not Active” and the IC50 [3] was “Not Active”. The Ki [3] was “Not Active”, the IC50 [4] was “Not Active” and the Ki [4] was “Not Active”.
